The subject of experiment [1] is Plasmodium falciparum. Put plainly: In vitro antimalarial activity against chloroquine-sensitive Plasmodium falciparum. The format is functional, organism-based.
The test system of experiment [2] is Plasmodium falciparum. Put plainly: In vitro antimalarial activity against chloroquine-resistant Plasmodium falciparum. The format is functional, organism-based.
Experiment [3] concerns Mus musculus. Put plainly: In vivo antimalarial activity of compound against Plasmodium berghei infected in mice (Mus musculus) model; Inactive. Format: functional, organism-based.
The subject of experiment [4] is Mus musculus. Put plainly: In vivo antimalarial activity of compound against Plasmodium berghei infected in mice (Mus musculus) model. Compound active at given dose. The format is functional.

Consider 41 molecules from ChEMBL document CHEMBL1135161, “Antimalarial activities of ring-substituted bioimidazoles” (Bioorg Med Chem Lett, 2002).

Calls of active or inactive are those of the source. The calls are words filed in the database; no cut-off is given here. Some results are limits rather than exact numbers.

With `NC(Cc1cnc(C2CCCCC2)n1Cc1ccccc1)C(=O)O` (stereo not given), in the experiment with Plasmodium falciparum [1], the IC50 is > 500 µM.
On to `NC(Cc1cn(Cc2ccccc2)cn1)C(=O)O` (stereo not given), for which the IC50 in the experiment on Plasmodium falciparum [1] is 360 µM.
Regarding `CC(C)(C)c1nc(CCN)c[nH]1`, the IC50 is 15.5 µM with Plasmodium falciparum [1] and 30.3 µM with Plasmodium falciparum [2]. In the experiment with Mus musculus [3], the DOSE result was “inactive”.
Take `NCCc1cnc(C23CC4CC(CC(C4)C2)C3)n1Cc1ccccc1`: the IC50 in the experiment on Plasmodium falciparum [1] was > 500 µM.
In the experiment on Plasmodium falciparum [1], `CC(C)c1nc(CCN)cn1C` had an IC50 of 387 µM.
`CCn1cnc(CC(N)C(=O)O)c1` (stereo not given): the IC50 with Plasmodium falciparum [1] is > 500 µM.
In the experiment with Plasmodium falciparum [1], `CC(C)n1cnc(CC(N)C(=O)O)c1` (stereo not given) had an IC50 of 120 µM.
On to `Cn1c(CC(N)C(=O)O)cnc1C(C)(C)C` (stereo not given), for which the half-inhibitory concentration (IC50) in the experiment with Plasmodium falciparum [1] was > 500 µM.
`NCCc1c[nH]c(C2CCC2)n1`: the IC50 with Plasmodium falciparum [1] is 367 µM.
Regarding `CC(C)n1cnc(CCN)c1`, the half-maximal inhibitory concentration (IC50) with Plasmodium falciparum [1] was 9.6 µM; with Plasmodium falciparum [2], 10.4 µM. Moreover, in the experiment with Mus musculus [4], the Dose is 100 mg/kg.
In the experiment with Plasmodium falciparum [1], `NC(Cc1c[nH]c(C2CCCC2)n1)C(=O)O` (stereo not given) returned a half-inhibitory concentration (IC50) of 276 µM.
As to `CC(C)(C)c1nc(CC(N)C(=O)O)cn1Cc1ccccc1` (stereo not given), in the experiment with Plasmodium falciparum [1], the IC50 was 157 µM.
Still for that read-out and setting: to `Cn1cnc(CC(N)C(=O)O)c1` (stereo not given) belongs > 500 µM; to `Cn1cnc(CCN)c1` [N-METHYLHISTAMINE], > 500 µM; to `C=CCn1cnc(CCN)c1`, 176 µM.
Still for that read-out and setting: for `CC(C)c1ncc(CC(N)C(=O)O)n1Cc1ccccc1` (stereo not given) the value was 355 µM; for `CC(C)(C)c1ncc(CCN)n1Cc1ccccc1`, 233 µM.
For `CCc1nc(CC(N)C(=O)O)c[nH]1` (stereo not given), in the experiment on Plasmodium falciparum [1], the IC50 was > 500 µM.
The same measure, in the same setting: to `CC(C)c1ncc(CCN)n1Cc1ccccc1` belongs 188 µM.
Turning to `CC(C)(C)c1nc(CC(N)C(=O)O)c[nH]1` (stereo not given), the IC50 was found to be 25.8 µM with Plasmodium falciparum [1] and 3.85 µM in the experiment with Plasmodium falciparum [2]. In addition, the DOSE result with Mus musculus [3] was “inactive”.
Turning to `Cc1nc(CC(N)C(=O)O)c[nH]1` (stereo not given), the IC50 with Plasmodium falciparum [1] was > 500 µM.
Take `CC(C)c1nc(CC(N)C(=O)O)cn1Cc1ccccc1` (stereo not given): the IC50 in the experiment on Plasmodium falciparum [1] came to 89 µM; with Plasmodium falciparum [2], 245 µM. Further, in the experiment on Mus musculus [3], the DOSE result was “inactive”.
`Cc1ncc(CCN)[nH]1` [2-METHYLHISTAMINE]: the half-inhibitory concentration (IC50) in the experiment with Plasmodium falciparum [1] is > 500 µM.
On the same count and under the same terms, for `NC(Cc1cnc(C23CC4CC(CC(C4)C2)C3)n1Cc1ccccc1)C(=O)O` (stereo not given) the value was > 500 µM; for `CC(C)(C)c1ncc(CC(N)C(=O)O)n1Cc1ccccc1` (stereo not given), 399 µM; for `Cn1cc(CCN)nc1C(C)(C)C`, 459 µM.
Turning to `CCn1cnc(CCN)c1`, in the experiment on Plasmodium falciparum [1], the IC50 is > 500 µM.
On the same count and under the same terms, to `Cn1cc(CC(N)C(=O)O)nc1C1CCCCC1` (stereo not given) belongs > 500 µM; to `Cn1cc(CC(N)C(=O)O)nc1C(C)(C)C` (stereo not given), > 500 µM.
On to `NC(Cc1c[nH]c(C23CC4CC(CC(C4)C2)C3)n1)C(=O)O` (stereo not given), for which, in the experiment with Plasmodium falciparum [1], half-maximal inhibition (IC50) required 450 µM.
In turn, `NC(Cc1c[nH]c(C2CCCCC2)n1)C(=O)O` (stereo not given) gave a half-maximal inhibitory concentration (IC50) in the experiment with Plasmodium falciparum [1] of 350 µM.
In the case of `NCCc1cnc(C2CCCCC2)n1Cc1ccccc1`, the IC50 in the experiment on Plasmodium falciparum [1] is > 500 µM.
On the same count and under the same terms, to `CC(C)c1nc(CC(N)C(=O)O)cn1C` (stereo not given) belongs > 500 µM; to `CCc1nc(CCN)c[nH]1`, > 500 µM.
Consider `CC(C)c1nc(CCN)c[nH]1`, for which the IC50 with Plasmodium falciparum [1] worked out at 4.7 µM; with Plasmodium falciparum [2], 4.8 µM. In the experiment on Mus musculus [4], this molecule yielded a Dose of 100 mg/kg.
Regarding `NCCc1c[nH]c(C2CCCC2)n1`, in the experiment with Plasmodium falciparum [1], 489 µM corresponded to half-maximal inhibition (IC50).
Regarding `NC(Cc1c[nH]c(C2CCC2)n1)C(=O)O` (stereo not given), half-maximal inhibition with Plasmodium falciparum [1] (IC50) was put at 255 µM.
Turning to `NCCc1cn(Cc2ccccc2)cn1`, the IC50 with Plasmodium falciparum [1] is 20.7 µM; with Plasmodium falciparum [2], 22.5 µM. The DOSE entry with Mus musculus [3] was “inactive”.
In the case of `CC(C)c1nc(CC(N)C(=O)O)c[nH]1` (stereo not given), the half-maximal inhibitory concentration (IC50) stood at 6.3 µM with Plasmodium falciparum [1] and 6.5 µM with Plasmodium falciparum [2]. Also, in the experiment with Mus musculus [4], the Dose was found to be 100 mg/kg.
In the case of `Cn1cc(CCN)nc1C1CCCCC1`, the 50% inhibitory concentration (IC50) in the experiment with Plasmodium falciparum [1] was > 500 µM.
Regarding `NCCc1c[nH]c(C2CCCCC2)n1`, in the experiment on Plasmodium falciparum [1], the IC50 was > 500 µM.
